# Results published in patent US20260027048A1, “GEMFIBROZIL FORMULATION” (POLARYX THERAPEUTICS, INC., priority 2022, published 2026).
# Where two headings read alike, the source gives them in different places.
# How the values were obtained:
# [1] = Solubility testing of gemfibrozil in solvents/cosolvents at 12 mg/ml and 32 mg/ml; format: physicochemical; details: tested at 12 and 32 mg/ml
# Description: Two doses of gemfibrozil were considered for each solvent/cosolvent. A low dose gemfibrozil preparation: 60 mg gemfibrozil in 5 ml of solvent/cosolvent (12 mg/ml dose), and a high dose gemfibrozil preparation: 160 mg gemfibrozil in 5 mL of solvent/cosolvent (32 mg/ml dose). Table 5 below illustrates that the first six solvent/cosolvents achieved gemfibrozil solubilization at both the 12 mg/ml dose and the 32 mg/ml dose. The solvent/cosolvents included the sodium carbonate/bicarbonate buffer having a pH of 10.5, polyethylene glycol (PEG) 400, glyceryl monolinoleate, propylene glycol dicaprylate/dicaprate, propylene glycol, and glyceryl monooleate.
# The citrate buffer having a pH of 4.5 with tocopheryl polyethylene glycol succinate (TPGS) achieved gemfibrozil solubilization only the 12 mg/ml dose. The remainder of the solvents/cosolvents were not able to solubilize gemfibrozil at either the low dose or the high dose concentration.
# [2] = Solubility of gemfibrozil in PEG 400 over a concentration range; format: physicochemical; details: standing upright at room temperature overnight
# Description: A concentrated stock solution of gemfibrozil was prepared in PEG 400. Gemfibrozil was evaluated for its solubility in PEG 400 over concentration range to determine an upper concentration that could be used to prepare a stock solution of gemfibrozil in liquid form. On the day of preparation gemfibrozil was dissolved in the PEG 400 at the indicated concentration. All samples were clear upon mixing. Following mixing, samples were stored standing upright at room temperature overnight.
# [3] = cited from earlier work
structure (smiles),measurement,setting,value
"Cc1ccc(C)c(OCCCC(C)(C)C(=O)O)c1 [Gemfibrozil, 5-(2,5-dimethylphenoxy)-2,2-dimethyl-pentanoic acid]",Gemfibrozil Solubility,[1]; Glycerol and Polysorbate 80,Not soluble
same,Gemfibrozil Solubility,[1]; Glyceryl monolinoleate,Soluble at 12 mg/ml and 32 mg/ml
same,Gemfibrozil Solubility,[1]; Glyceryl monooleate,Soluble at 12 mg/ml and 32 mg/ml
same,Gemfibrozil Solubility,[1]; Polyethylene glycol 400,Soluble at 12 mg/ml and 32 mg/ml
same,Gemfibrozil Solubility,[1]; Propylene glycol dicaprylate/dicaprate,Soluble at 12 mg/ml and 32 mg/ml
same,Gemfibrozil Solubility,[1]; Propylene glycol,Soluble at 12 mg/ml and 32 mg/ml
same,Gemfibrozil Solubility,[1]; Soybean oil,Not soluble
same,Gemfibrozil Solubility,[1]; pH 4.5 Citrate buffer and Poloxamer P188,Not soluble
same,Gemfibrozil Solubility,[1]; pH 4.5 Citrate buffer and Solutol HS15,Not soluble
same,Gemfibrozil Solubility,[1]; pH 4.5 citrate buffer and TPGS,Soluble at 12 mg/ml
same,Gemfibrozil Solubility,[1]; pH 10.5 Sodium carbonate/bicarbonate buffer,Soluble at 12 mg/ml and 32 mg/ml
same,solubility limit of gemfibrozil in PEG 400,[2],21.3 % w/w
same,solubility of gemfibrozil,[3]; in DMSO,~16 mg/mL
same,solubility of gemfibrozil,[3]; in ethanol,approximately 30 mg/ml
same,solubility of gemfibrozil,[3]; in water,approximately 0.03 mg/ml
